From US20140309186A1, “Metabolomics-Based Identification of Disease-Causing Agents” (Georgia Tech Research Corporation, priority 2007, published 2014)

Legend:
Jurkat cells [1] = assay: Growth inhibition of Jurkat cells, resazurin-based in vitro toxicology assay (TOX-8); assay type: cell-based, Human; conditions: for activity at 100 µM: Homo sapiens, Jurkat, read-out: Jurkat cell growth as percentage of the untreated control
HT29 colon cancer cells = conditions: literature; cited from earlier work
histone deacetylase 1 = biological target: T1, histone deacetylase 1 (Homo sapiens, UniProt Q13547); conditions: literature; cited from earlier work
T1 construct: host or cells: HT29 (cell context of the cited finding)
T1 sequence (Q13547 whole entry): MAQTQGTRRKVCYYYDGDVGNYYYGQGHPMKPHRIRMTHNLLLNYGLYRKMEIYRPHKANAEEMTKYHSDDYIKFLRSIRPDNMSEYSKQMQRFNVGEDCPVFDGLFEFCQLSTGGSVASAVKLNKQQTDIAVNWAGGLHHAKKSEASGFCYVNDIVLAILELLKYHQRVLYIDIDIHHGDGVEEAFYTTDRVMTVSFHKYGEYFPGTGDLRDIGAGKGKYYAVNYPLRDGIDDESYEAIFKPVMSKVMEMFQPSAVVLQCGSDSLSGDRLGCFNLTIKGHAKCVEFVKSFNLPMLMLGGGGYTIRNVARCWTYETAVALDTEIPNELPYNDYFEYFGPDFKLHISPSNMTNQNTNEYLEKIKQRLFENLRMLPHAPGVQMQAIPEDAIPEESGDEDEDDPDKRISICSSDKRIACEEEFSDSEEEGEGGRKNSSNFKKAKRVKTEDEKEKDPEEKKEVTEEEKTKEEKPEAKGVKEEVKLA

HL-60 cells = conditions: literature; cited from earlier work
Jurkat cells [2] = conditions: literature search; cited from earlier work
HeLa cell = conditions: literature; cited from earlier work
[3] = biological target: T2, tryptophanyl-tRNA synthetase (Homo sapiens, UniProt P23381); conditions: literature; cited from earlier work
T2 construct: host or cells: HeLa (cell context of the cited finding)
T2 sequence (P23381 1-471): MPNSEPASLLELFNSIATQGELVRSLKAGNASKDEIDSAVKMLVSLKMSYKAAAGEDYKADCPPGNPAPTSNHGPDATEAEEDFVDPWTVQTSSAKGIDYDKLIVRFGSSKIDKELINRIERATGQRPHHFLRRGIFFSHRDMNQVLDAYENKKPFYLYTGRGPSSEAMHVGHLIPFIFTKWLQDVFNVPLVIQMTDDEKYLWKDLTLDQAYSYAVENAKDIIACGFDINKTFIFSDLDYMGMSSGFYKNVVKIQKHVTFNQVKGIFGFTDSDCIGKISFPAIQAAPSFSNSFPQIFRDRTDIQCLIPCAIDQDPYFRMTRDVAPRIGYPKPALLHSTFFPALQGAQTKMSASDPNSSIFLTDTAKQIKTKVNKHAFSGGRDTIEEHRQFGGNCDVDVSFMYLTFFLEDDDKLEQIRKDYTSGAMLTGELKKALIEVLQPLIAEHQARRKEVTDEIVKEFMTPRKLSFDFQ

OVCAR-3 cells [4] = conditions: literature; cited from earlier work
RNA polymerase II = conditions: literature; cited from earlier work
malignant erythroblasts = conditions: literature; cited from earlier work
OVCAR-3 cells [5] = assay: Growth inhibition of OVCAR-3 cells, resazurin-based in vitro toxicology assay (TOX-8); assay type: cell-based, human; conditions: single metabolite, 100 μM, 72 hours
human lymphoblast cells = assay: Growth of human lymphoblast cells cultured in identical conditions; assay type: cell-based; conditions: 50 μM
Experimental: The positive association between lowered metabolite levels in Jurkat cells as predicted by CoMet and antiproliferative activity of the metabolite in that cell line is highly significant (Fisher's exact test two-tailed p-value=8.7×10^−6). Furthermore, when the effect of these metabolites on growth inhibition was tested in Jurkat and human lymphoblast cells cultured in identical conditions, a pattern of selectivity of the antiproliferative effect towards the cancer cell line became evident.

normal T lymphocytes = conditions: cited from earlier work
[6] = single metabolite, 100 μM, 72 hour treatment, control = 100%, lower = stronger inhibition

| Molecule | activity at 100 µM (Jurkat cells [1]; [6]) | anticancer activity in Jurkat cells known from the literature (Jurkat cells [2]) | other results |
| --- | --- | --- | --- |
| Cc1cc2nc3c(=O)[nH]c(=O)nc-3n(C[C@H](O)[C@H](O)[C@H](O)CO)c2cc1C [riboflavin] | > 70% | – | – |
| CC(=O)CO [hydroxyacetone] | > 70% | – | – |
| CCCCCCCCCC(O)CCCCCCCC(=O)O (stereo not drawn) [9-hydroxystearic acid] | – | – | effect on HT29 colon cancer cells (HT29 colon cancer cells): arrests HT29 colon cancer cells in G0/G1 phase; effect on histone deacetylase 1 (histone deacetylase 1): inhibition |
| menaquinone | – | – | effect on HL-60 cells (HL-60 cells): induce G0/G1 arrest, differentiation, and apoptosis; Jurkat cell growth as percentage of the untreated control (Jurkat cells [1]; [6]): 11.3% |
| COc1ccc2[nH]cc(CCNC(C)=O)c2c1 [melatonin] | – | active in Jurkat cells | – |
| sphingolipid GD3 | – | active in Jurkat cells | – |
| NCCc1c[nH]c2ccccc12 [tryptamine] | – | – | effect on HeLa cell growth (HeLa cell): effective inhibitor; effect on tryptophanyl-tRNA synthetase [3]: competitive inhibition |
| C=CC1=C(C)/C(=C/c2[nH]c(Cc3[nH]c(/C=C4\NC(=O)C(C)=C4C=C)c(C)c3CCC(=O)O)c(CCC(=O)O)c2C)NC1=O [bilirubin] | 21.3% | – | – |
| Nc1ncnc2c1ncn2[C@H]1C[C@H](O)[C@@H](CO)O1 [2′-deoxyadenosine] | – | active in Jurkat cells | – |
| Cc1cc2nc[nH]c2cc1C [5,6-di-ethylbenzimidazole, 5,6-dimethylbenzimidazole] | 61.4% | – | – |
| COc1cc2c(cc1O)CC[C@@H]1[C@@H]2CC[C@]2(C)[C@@H](O)CC[C@@H]12 [2-methoxy-estradiol-17β] | – | apoptotic agent | anticancer activity in OVCAR-3 cells previously demonstrated (OVCAR-3 cells [4]): anticancer activity |
| OC[C@H]1O[C@@H](n2cnc3c(O)ncnc32)C[C@@H]1O [2′-deoxyinosine] | – | active in Jurkat cells | – |
| N[C@@H](Cc1cc(I)c(Oc2ccc(O)c(I)c2)c(I)c1)C(=O)O [3′,3,5-triiodo-L-thyronine] | – | – | anticancer activity in OVCAR-3 cells previously demonstrated (OVCAR-3 cells [4]): anticancer activity |
| Clc1cc2nc[nH]c2cc1Cl [5,6-dichlorobenzimidazole] | – | – | effect on RNA polymerase II (RNA polymerase II): inhibiting; effect on malignant erythroblasts (malignant erythroblasts): induces differentiation |
| N[C@@H](CS(=O)O)C(=O)O [sulfino-L-alanine, 3-sulfino-L-alanine] | – | – | effect on growth of OVCAR-3 cells (in words) (OVCAR-3 cells [5]): did not inhibit the growth; effect on growth of Jurkat cells (in words) (Jurkat cells [1]; single metabolite, 100 μM, 72 hour treatment): did not inhibit the growth |
| CC(C)(CO)[C@@H](O)C(=O)NCCC(=O)O [pantothenic acid] | > 90% | – | – |

| Molecule | activity at 100 µM (Jurkat cells [1]; [6]) | anticancer activity in Jurkat cells known from the literature (Jurkat cells [2]) | other results |
| --- | --- | --- | --- |
| CC(=O)C=O [methylglyoxal] | – | active in Jurkat cells | – |
| C[C@]12CC[C@H](O)CC1=CC[C@@H]1[C@@H]2CC[C@]2(C)C(=O)CC[C@@H]12 [dehydroepiandrosterone] | – | – | effect on proliferation of lymphoblasts (in words) (human lymphoblast cells): stimulated the proliferation; effect on growth of Jurkat cells (in words) (Jurkat cells [1]; 50 μM): inhibited the growth |
| C=C1/C(=C\C=C2/CCC[C@]3(C)[C@@H]([C@H](C)CCCC(C)(C)O)CC[C@@H]23)C[C@@H](O)C[C@@H]1O [calcitriol] | – | – | anticancer activity in OVCAR-3 cells previously demonstrated (OVCAR-3 cells [4]): anticancer activity |
| CCCCC[C@H](O)/C=C/[C@H]1C(=O)C[C@H](O)[C@@H]1C/C=C\CCCC(=O)O [prostaglandin D2] | – | induces apoptosis | effect on viability of normal T lymphocytes (normal T lymphocytes): without inhibiting the viability |
| NC(=O)c1cccnc1 [nicotinamide] | – | active in Jurkat cells | – |
| Nc1nc2ncc(CNc3ccc(C(=O)N[C@@H](CCC(=O)O)C(=O)O)cc3)nc2c(=O)[nH]1 [folic acid] | > 90% | – | – |
| COc1cc(C(O)C(=O)O)ccc1O (stereo not drawn) [vanillylmandelic acid] | > 90% | – | – |
| Nc1nc2c(ncn2[C@H]2C[C@H](O)[C@@H](CO)O2)c(=O)[nH]1 [2′-deoxyguanosine] | – | active in Jurkat cells | – |
| CC1=C(/C=C/C(C)=C/C=C/C(C)=C/C(=O)O)C(C)(C)CCC1 [all-trans-retinoic acid] | – | – | anticancer activity in OVCAR-3 cells previously demonstrated (OVCAR-3 cells [4]): anticancer activity |
| Cc1cn([C@H]2C[C@H](O)[C@@H](CO)O2)c(=O)[nH]c1=O [thymidine] | – | antineoplastic agent | – |
| CC(C)CCC[C@@H](C)[C@H]1CC[C@H]2[C@@H]3CC=C4C[C@@H](O)CC[C@]4(C)[C@H]3CC[C@]12C [cholesterol] | > 90% | – | – |
| O=C(O)CC(O)(CC(=O)O)C(=O)O [citric acid] | > 90% | – | – |
| C[C@]12CC[C@H]3[C@@H](CCC4=CC(=O)CC[C@@]43C)[C@@H]1CC[C@@H]2O [testosterone] | – | active in Jurkat cells | – |
| CCCCCCCCCCCCCCCCC(O)C(=O)O (stereo not drawn) [α-hydroxystearic acid] | 67.8% | – | – |
| CCCCC/C=C\C/C=C\CCCCCCCC(=O)O [linoleic acid] | – | active in Jurkat cells | – |
